From PubChem BioAssay (NCI)
Values joined by “and” are separate entries in the source; they are usually repeats but may differ in a detail not shown here. Identical values can stand only once.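 Five compound concentrations were applied to cells in 96-well plates for 48 hours; endpoints were derived by simple linear interpolation of the resulting dose-response curve. The concentration for 50% growth inhibition is given as GI50. Definition used: TGI = concentration required for complete inhibition of growth.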

What was measured:
Experiment in all cases: DTP human tumour cell line panel, 48 h
[1] = tested on: KM12 colon
[2] = tested on: UACC-62 melanoma
[3] = tested on: MALME-3M melanoma
[4] = tested on: SK-MEL-28 melanoma
[5] = tested on: HL-60(TB) leukemia
[6] = tested on: TK-10 renal
[7] = tested on: 786-0 renal
[8] = tested on: SK-OV-3 ovarian
[9] = tested on: SF-539 CNS
[10] = tested on: U251 CNS
[11] = tested on: LOX IMVI melanoma
[12] = tested on: NCI/ADR-RES ovarian
[13] = tested on: NCI-H460 lung
[14] = tested on: RPMI-8226 leukemia
[15] = tested on: MOLT-4 leukemia
[16] = tested on: MDA-MB-435
[17] = tested on: DU-145 prostate
[18] = tested on: UO-31 renal
[19] = tested on: NCI-H522 lung
[20] = tested on: K-562 leukemia
[21] = tested on: OVCAR-4 ovarian
[22] = tested on: MDA-MB-231 breast
[23] = tested on: SW-620 colon
[24] = tested on: SF-268 CNS
[25] = tested on: HCT-15 colon
[26] = tested on: HOP-92 NSCLC
[27] = tested on: HCC-2998 colon
[28] = tested on: OVCAR-8 ovarian
[29] = tested on: HS 578T breast
[30] = tested on: BT-549 breast
[31] = tested on: SN12C renal
[32] = tested on: IGROV1 ovarian
[33] = tested on: T-47D breast
[34] = tested on: CCRF-CEM leukemia
[35] = tested on: OVCAR-5 ovarian
[36] = tested on: A498 renal
[37] = tested on: HT29 colon
[38] = tested on: MCF7 breast
[39] = tested on: NCI-H23 lung
[40] = tested on: HCT-116 colon
[41] = tested on: CAKI-1 renal
[42] = tested on: EKVX NSCLC
[43] = tested on: RXF 393 renal
[44] = tested on: COLO 205 colon
[45] = tested on: HOP-62 NSCLC
[46] = tested on: SNB-19 CNS
[47] = tested on: SNB-75 CNS
[48] = tested on: PC-3 prostate
[49] = tested on: M14 melanoma

## C/C=C/C1=CN2C(=O)c3cc(OC4OC(C)C(NC)C(C)(O)C4O)c(C)cc3N=C[C@@H]2C1 (stereo partly specified)
[1]
  GI50: 34.5 nM
  TGI: 544 nM
[2]
  GI50: 16.7 nM
  TGI: 36.1 nM
[3]
  GI50: 20.1 nM
  TGI: 39.6 nM
[4]
  GI50: 22.5 nM
  TGI: 50.8 nM
[5]
  GI50: 21.1 nM
  TGI: 101 nM
[6]
  GI50: 26.4 nM
  TGI: 68.3 nM
[7]
  GI50: 22.6 nM
  TGI: 49.3 nM
[8]
  TGI: 11900 nM
[9]
  GI50: 18.3 nM
  TGI: 137 nM
[10]
  GI50: 14.8 nM
  TGI: 245 nM and 130 nM
[11]
  GI50: 13.3 nM
  TGI: 41.5 nM
[12]
  TGI: 735 nM
[13]
  GI50: 23.7 nM
[14]
  GI50: 24.6 nM
  TGI: 94.7 nM
[15]
  GI50: 12.4 nM
  TGI: 178 nM
[16]
  GI50: 15.8 nM
  TGI: 32 nM
[17]
  GI50: 38.2 nM
  TGI: 1580 nM
[18]
  GI50: 24 nM
  TGI: 59.6 nM
[19]
  GI50: 7.62 nM
  TGI: 30.1 nM
[20]
  GI50: 25.8 nM
[21]
  GI50: 25.8 nM
[22]
  GI50: 35.7 nM
  TGI: 17100 nM
[23]
  GI50: 22.4 nM
[24]
  GI50: 21.6 nM
  TGI: 37.2 nM
[25]
  GI50: 174 nM
  TGI: 11500 nM
[26]
  GI50: 68.7 nM
  TGI: > 100000 nM
[27]
  GI50: 58.5 nM
  TGI: 336 nM
[28]
  GI50: 17.9 nM
  TGI: 87 nM
[29]
  GI50: 53.9 nM
[30]
  GI50: 19.1 nM
  TGI: 40.8 nM
[31]
  GI50: 33 nM
  TGI: 11100 nM
[32]
  GI50: 30 nM
[33]
  GI50: 24.7 nM
[34]
  GI50: 13 nM
[35]
  GI50: 43.1 nM
  TGI: 10400 nM
[36]
  GI50: 17.3 nM
  TGI: 31.9 nM
[37]
  GI50: 24.2 nM
  TGI: 66 nM
[38]
  GI50: 8.47 nM
  TGI: 11900 nM
[39]
  GI50: 19.7 nM
  TGI: 282 nM
[40]
  TGI: 11600 nM
[41]
  GI50: 39.1 nM
[42]
  GI50: 242 nM
  TGI: 20.3 nM
[43]
  GI50: 14 nM
  TGI: 31.5 nM
[44]
  GI50: 17.5 nM
  TGI: 41.1 nM
[45]
  GI50: 22.2 nM
  TGI: 70.3 nM
[46]
  GI50: 30.7 nM
  TGI: 12400 nM
[47]
  GI50: 15.9 nM
  TGI: 55.5 nM
[48]
  GI50: 44.1 nM
  TGI: 26800 nM
[49]
  GI50: 14.1 nM
  TGI: 31.2 nM
